These are literature values, as cited in patent publication US11890293B2, “Synthetic composition for treating metabolic disorders” (GLYCOM A/S, priority 2014, dated 2024).

Data set [1] relates to type 2 diabetes-model mice. As to conditions: oral doses.

Take `CC(=O)N[C@H]1[C@H](O[C@H]2[C@@H](O)[C@@H](CO)O[C@@H](O[C@H]3[C@H](O)[C@@H](O)C(O)O[C@@H]3CO)[C@@H]2O)O[C@H](CO)[C@@H](O[C@@H]2O[C@H](CO)[C@H](O)[C@H](O)[C@H]2O)[C@@H]1O` (mixture of isomers) [LNnT, lacto-N-neotetraose]: the insulin secretion entry in data set [1] is listed as “promote insulin secretion”.

In the case of `CC(=O)N[C@H]1[C@H]([C@H](O)[C@H](O)CO)O[C@@](O[C@H]2[C@@H](O)[C@@H](CO)O[C@@H](O[C@H]3[C@H](O)[C@@H](O)C(O)O[C@@H]3CO)[C@@H]2O)(C(=O)O)C[C@@H]1O` (stereo partly shown) [3′-SL, 3′-sialyllactose], the “fat accumulation in the liver and other organs” value in the data set on high-fat diet rats was “reduce/prevent fat accumulation in the liver and other organs”; in the data set with high-fat diet mice, “reduce/prevent fat accumulation in the liver and other organs”. For the same compound, the insulin secretion entry in data set [1] was “promote insulin secretion”.

In the case of `CC(=O)N[C@H]1[C@H]([C@H](O)[C@H](O)CO)O[C@@](OC[C@H]2O[C@@H](O[C@H]3[C@H](O)[C@@H](O)[C@H](O)O[C@@H]3CO)[C@H](O)[C@@H](O)[C@H]2O)(C(=O)O)C[C@@H]1O` [6′-SL, 6′-sialyllactose], the “fat accumulation in the liver and other organs” value in the data set with high-fat diet rats is “reduce/prevent fat accumulation in the liver and other organs”; with high-fat diet mice it was “reduce/prevent fat accumulation in the liver and other organs”. Moreover, the insulin secretion entry in data set [1] is reported as “promote insulin secretion”.
